In test [1] the target is T1, Human immunodeficiency virus type 1 reverse transcriptase (Human immunodeficiency virus 1, UniProt Q72547). Kind of test: Inhibition of HIV-1 reverse transcriptase using 0.05 ug/mL of Poly(rA).p(dT) (12 to 18) as substrate after 30 mins by single point PCR assay.
Test [2] has as its target T1, Human immunodeficiency virus type 1 reverse transcriptase. Kind of test: Inhibition of HIV-1 reverse transcriptase using 25 ug/mL of Poly(rA).p(dT) (12 to 18) as substrate after 30 mins by single point PCR assay.
For test [3] the target is unchanged. The test is described as follows: Inhibition of HIV-1 reverse transcriptase using 25 ug/mL of Poly(rA).p(dT) (12 to 18) as substrate after 30 mins by single point PCR assay in presence of 340 uM base pair of calf thymus DNA.
Test [4] has the same target. Kind of test: Inhibition of HIV-1 reverse transcriptase using Poly(rA).p(dT) (12 to 18) as substrate after 30 mins by single point PCR assay.
Test [5] can be described thus: Inhibition of partially purified telomerase by fluorescence-based assay.
Test [6] can be described thus: Inhibition of telomerase in human HeLa cell extract by fluorescence-based assay. The format is cell-free.
The target in test [7] is T1, Human immunodeficiency virus type 1 reverse transcriptase. Kind of test: Inhibition of HIV-1 reverse transcriptase using 0.5 ug/mL of Poly(rA).p(dT) (12 to 18) as substrate after 30 mins by single point PCR assay.
A short description of test [8]: Inhibition of telomerase.

Molecules are shown by their SMILES. Starred links: 1 amine or outer side, 2 acyl side, 3 side chain; linkers in the order of their positions; H or OH if unused. Positions of bridges follow the written chain, without caps; N, C: chain ends. Non-standard residues stand in square brackets, D forms with d. Residues, ends and D or L forms follow the SMILES beside them. Chains are numbered I, II in the order given. Actinocin(9to1) = Cc1c2oc3c(C)ccc(C(=O)[*:1])c3nc-2c(C(=O)[*:2])c(N)c1=O; NMeV = CN[C@H](C(=O)O)C(C)C; Sar = CNCC(=O)O

The text below walks through data of ChEMBL document CHEMBL2157905, “Inhibition of therapeutically important polymerases with high affinity bis-intercalators” (Bioorg Med Chem Lett, 2012).

For orientation: IC50 means the concentration at which inhibition is half-maximal.

On to `Nc1ccc2c(c1)c(-c1ccccc1)[n+](CCCNCCNCCC[n+]1c(-c3ccccc3)c3cc(N)ccc3c3ccc(N)cc31)c1cc(N)ccc21`, for which the results for the IC50 in test [1], in test [2] and in test [3] were 10.8 nM, 2300 nM and 8500 nM, respectively. Regarding `Cc1c2oc3c(C)c(N)cc(C(=O)N[C@@H]4C(=O)N[C@H](C(C)C)C(=O)N5CCC[C@H]5C(=O)N(C)CC(=O)N(C)[C@@H](C(C)C)C(=O)O[C@@H]4C)c3nc-2c(C(=O)N[C@@H]2C(=O)N[C@H](C(C)C)C(=O)N3CCC[C@H]3C(=O)N(C)CC(=O)N(C)[C@@H](C(C)C)C(=O)O[C@@H]2C)c(N)c1=O`, the IC50 in test [4] (read-out: IC50) came out at 93000 nM.

With `O=C(O)c1ccc2cc3ccccc3cc2c1`, in test [4], the half-inhibitory concentration (IC50) result is given as “Not Active”. Consider `O=C(O)c1cccc2cc3ccccc3cc12`, for which the IC50 entry in test [4] is reported as “Not Active”. On to `O=C(O)c1c2ccccc2nc2ccccc12`, for which the IC50 entry in test [4] is “Not Active”. Turning to `NC(=O)[C@H](CCCNC(=O)c1ccc(C[n+]2c(-c3ccccc3)c3cc(N)ccc3c3ccc(N)cc32)cc1)NC(=O)CCCCCNC(=O)[C@@H](N)CCCNC(=O)c1ccc(C[n+]2c(-c3ccccc3)c3cc(N)ccc3c3ccc(N)cc32)cc1`, in test [1], 4.9 nM corresponded to half-maximal inhibition (IC50).

For `NC(=O)[C@H](CCCNC(=O)c1ccc(C[n+]2c(-c3ccccc3)c3cc(N)ccc3c3ccc(N)cc32)cc1)NC(=O)CCNC(=O)C(N)CNC(=O)c1ccc(C[n+]2c(-c3ccccc3)c3cc(N)ccc3c3ccc(N)cc32)cc1` (stereo not given in full), the IC50 in test [1] was determined as 9.2 nM. On the same count and under the same terms, to `NC(=O)[C@H](CCCCNC(=O)c1ccc(C[n+]2c(-c3ccccc3)c3cc(N)ccc3c3ccc(N)cc32)cc1)NC(=O)CCCNC(=O)[C@@H](N)CCCCNC(=O)c1ccc(C[n+]2c(-c3ccccc3)c3cc(N)ccc3c3ccc(N)cc32)cc1` belongs 10.5 nM; to `NC(=O)C(CNC(=O)c1ccc(C[n+]2c(-c3ccccc3)c3cc(N)ccc3c3ccc(N)cc32)cc1)NC(=O)[C@@H](N)CCCNC(=O)c1ccc(C[n+]2c(-c3ccccc3)c3cc(N)ccc3c3ccc(N)cc32)cc1` (stereo not given in full), 22.3 nM; to `NC(=O)C(CNC(=O)c1ccc(C[n+]2c(-c3ccccc3)c3cc(N)ccc3c3ccc(N)cc32)cc1)NC(=O)CCCCCNC(=O)[C@@H](N)CCCCNC(=O)c1ccc(C[n+]2c(-c3ccccc3)c3cc(N)ccc3c3ccc(N)cc32)cc1` (stereo not given in full), 30.7 nM.

For `NCCCC[C@H](NC(=O)CCNC(=O)C(N)CN)C(N)=O` (stereo not given in full), the 50% inhibitory concentration (IC50) was 100 nM in test [5] and 600 nM in test [6].

For the compound `CCOc1ccc2nc3cc(N)ccc3c(N)c2c1`, the 50% inhibitory concentration (IC50) in test [4] (read-out: IC50) worked out at 20000 nM. For the compound `COc1ccc2nc3cc(Cl)ccc3c(N)c2c1`, the IC50 result in test [4] is given as “Not Active”. In the case of `COc1ccc2nc3cc(Cl)ccc3c(NCCCNCCCCNCCCNc3c4ccc(Cl)cc4nc4ccc(OC)cc34)c2c1` [ACRIDINE DIMER], the IC50 was determined as 220 nM in test [1], 12900 nM in test [2] and 400 nM in test [7]. Regarding `CN(C)c1ccc2cc3ccc(N(C)C)cc3nc2c1` [ACRIDINE ORANGE], in test [4] (read-out: IC50), the IC50 came out at 200000 nM.

For `Cc1cc2cc3cc(C)c(N)cc3nc2cc1N` [ACRIDINE YELLOW], the IC50 in test [4] (read-out: IC50) was 32000 nM. As for `Cc1c2oc3c(C)ccc(C(=O)N[C@@H]4C(=O)N[C@H](C(C)C)C(=O)N5CCC[C@H]5C(=O)N(C)CC(=O)N(C)[C@@H](C(C)C)C(=O)O[C@@H]4C)c3nc-2c(C(=O)N[C@@H]2C(=O)N[C@H](C(C)C)C(=O)N3CCC[C@H]3C(=O)N(C)CC(=O)N(C)[C@@H](C(C)C)C(=O)O[C@@H]2C)c(N)c1=O` [DACTINOMYCIN] (I: T[dV]P[Sar][NMeV] / II: T[dV]P[Sar][NMeV]; ester I:1-I:C, II:1-II:C; linker I:N-II:N via Actinocin(9to1)), the half-maximal inhibitory concentration (IC50) in test [4] (read-out: IC50) came to 270000 nM.

With `COc1cccc2c1C(=O)c1c(O)c3c(c(O)c1C2=O)C[C@@](O)(C(C)=O)C[C@@H]3O[C@H]1C[C@H](N)[C@H](O)[C@H](C)O1` [DAUNORUBICIN], the concentration for half-maximal inhibition (IC50) in test [4] (read-out: IC50) was 139000 nM. On the same count and under the same terms, to `Cc1c2ccncc2c(C)c2c1[nH]c1ccccc12` [ELLIPTECINE] belongs 182000 nM. Still for that read-out and setting: to `CC[n+]1c(-c2ccccc2)c2cc(N)ccc2c2ccc(N)cc21` [HOMIDIUM BROMIDE] belongs 2000 nM.

In the case of `CC[n+]1c(-c2ccccc2)c2cc(N)ccc2c2ccc(N)cc21` [HOMIDIUM], the half-maximal inhibitory concentration (IC50) in test [1] came out at 2100 nM; in test [2] it was 2200 nM; in test [7], 1800 nM; in test [8], 3300 nM.

As for `CC[N+](C)(CC)CCC[n+]1c(-c2ccccc2)c2cc(N)ccc2c2ccc(N)cc21` [PROPIDIUM], the IC50 in test [4] (read-out: IC50) came out at 3000 nM.
